Assay results reported in patent US20150305333A1, “USE OF GLUCOSAMINE AMIDES AS PLANT GROWTH AND YIELD ENHANCERS” (PIONEER HI-BRED INTERNATIONAL, INC., priority 2012, published 2015).

System: soybean seeds
Assay: Petri dish seed germination assay, soybean
Format: in vivo
Method: A series of Petri dish seed assays was conducted to evaluate the effects NPG on the seed germination rates of corn, soybean, and canola seeds subjected to cold stress, salt stress and non-stressed conditions (salt stress only for canola). Assays were performed with ten replications of ten seeds/plate (100 total seeds). NPG was applied to seeds at the specified concentrations prior to being placed in Petri plates. Seeds designated for Salt Stress Experiments 1 & 2 were placed in Petri dishes containing a 100 mM NaCl solution and incubated at 21° C.-22° C. in the dark. Cold stress Petri dishes were incubated at 15° C. in the dark. Untreated Controls were incubated at 21° C.-22° C. in the dark as were seeds utilized in the separately conducted non-stressed germination assays. Data was recorded as percent germination at designated times after plating. Statistical analyses were performed using one-way Anova and Kruskal-Wallis one-way analysis of variance on rank combined with Dunn's all pairwise multiple comparison procedure (α=0.05).

## CCCCCCC=CCCCCCCCC(=O)NC1C(OC)OC(CO)C(O)C1O [NPG, Methyl 2-deoxy-2-N-(hexadece-9,10-cis-eneoyl)-β-D-glucopyranoside]
Cold Stress (15° C.), 10^−6M × 4 Times, 30 HAP
  Soybean Seed Germination: 29a %
Cold Stress (15° C.), 10^−6M × 4 Times, 36 HAP
  Soybean Seed Germination: 58a %
Cold Stress (15° C.), 10^−6M × 4 Times, 44 HAP
  Soybean Seed Germination: 81a %
Cold Stress (15° C.), 10^−6M × 4 Times, 50 HAP
  Soybean Seed Germination: 90a %
Cold Stress (15° C.), 10^−6M × 4 Times, 60 HAP
  Soybean Seed Germination: 97a %
Cold Stress (15° C.), 10^−6M, 30 HAP
  Soybean Seed Germination: 26a %
Cold Stress (15° C.), 10^−6M, 36 HAP
  Soybean Seed Germination: 58a %
Cold Stress (15° C.), 10^−6M, 44 HAP
  Soybean Seed Germination: 80a %
Cold Stress (15° C.), 10^−6M, 50 HAP
  Soybean Seed Germination: 90a %
Cold Stress (15° C.), 10^−6M, 60 HAP
  Soybean Seed Germination: 96a %
Cold Stress (15° C.), 10^−7M, 30 HAP
  Soybean Seed Germination: 23a %
Cold Stress (15° C.), 10^−7M, 36 HAP
  Soybean Seed Germination: 51a %
Cold Stress (15° C.), 10^−7M, 44 HAP
  Soybean Seed Germination: 84a %
Cold Stress (15° C.), 10^−7M, 50 HAP
  Soybean Seed Germination: 91a %
Cold Stress (15° C.), 10^−7M, 60 HAP
  Soybean Seed Germination: 95a %
Non-Stressed, 10^−6M × 4 Times, 27 HAP
  Soybean Seed Germination: 72a %
Non-Stressed, 10^−6M × 4 Times, 34 HAP
  Soybean Seed Germination: 88a %
Non-Stressed, 10^−6M × 4 Times, 45 HAP
  Soybean Seed Germination: 94a %
Non-Stressed, 10^−6M, 27 HAP
  Soybean Seed Germination: 70a %
Non-Stressed, 10^−6M, 34 HAP
  Soybean Seed Germination: 93a %
Non-Stressed, 10^−6M, 45 HAP
  Soybean Seed Germination: 97a %
Salt Stress (100 mM NaCl), 10^−6M × 4 Times, 27 HAP
  Soybean Seed Germination: 17a %
Salt Stress (100 mM NaCl), 10^−6M × 4 Times, 34 HAP
  Soybean Seed Germination: 76ab %
Salt Stress (100 mM NaCl), 10^−6M × 4 Times, 45 HAP
  Soybean Seed Germination: 89ab %
Salt Stress (100 mM NaCl), 10^−6M × 4 Times, 55 HAP
  Soybean Seed Germination: 96a %
Salt Stress (100 mM NaCl), 10^−6M × 4 Times, 65 HAP
  Soybean Seed Germination: 99a %
Salt Stress (100 mM NaCl), 10^−6M, 27 HAP
  Soybean Seed Germination: 22a %
Salt Stress (100 mM NaCl), 10^−6M, 34 HAP
  Soybean Seed Germination: 73ab %
Salt Stress (100 mM NaCl), 10^−6M, 45 HAP
  Soybean Seed Germination: 83ab %
Salt Stress (100 mM NaCl), 10^−6M, 55 HAP
  Soybean Seed Germination: 95a %
Salt Stress (100 mM NaCl), 10^−6M, 65 HAP
  Soybean Seed Germination: 99a %
